Results taken from US20230200390A1, “SELECTIVE HERBICIDES BASED ON SUBSTITUTED ISOXAZOLIN CARBOXAMIDES AND MEFENPYR-DIETHYL” (BAYER AKTIENGESELLSCHAFT, priority 2020, published 2023).

What was measured:
Format in all cases: in vivo
[1] = tested on: spring barley, HORVS Montoya; assay: Tank-mix; post-emergence: crop damage by herbicide with/without safener mefenpyr-diethyl
Description: (§1) Seeds of crops (spring wheat, TRZAS; spring barley, HORVS; maize, ZEAMA) were placed in sandy loam soil in peat pots, covered with soil and cultivated in a greenhouse under good growth conditions. Two to three weeks after sowing, the test plants were treated at the 1 to 3-leaf stage. The herbicide/safener active compound combinations according to the invention, formulated as wettable powders or emulsion concentrates, and, in parallel tests, the correspondingly formulated individual active compounds were sprayed onto the green parts of the plants in various dosages using an amount of water of 300 l/ha (converted).
(§2) The pots were returned under good growing conditions in a glasshouse and a visual assessment of herbicidal effects was made at intervals from 1 to 3 weeks after herbicide application (DAT=days after treatment). Assessment was on a percentage basis in comparison with untreated control plants (0%=no injury, 100%=complete kill).

[2] = tested on: spring wheat, TRZAS Triso; assay: as above
Description: as §1, §2

[3] = tested on: spring barley, HORVS Montoya; assay: Seed treatment with safener; post-emergence herbicide, crop damage; conditions: for HER effect + SAF / Reduction [%] / Reduction [Difference]: mefenpyr-diethyl 0.5 g a.i./kg seed
From the text: (§3) For safener seed treatment trials, sufficient seed amounts of the respective crops (spring wheat (TRZAS); spring barley (HORVS)) were weighed into screw cap glass bottles with a minimum volume trice of the seeds.
(§4) As a first step, specified safeners formulated as wettable powder (WP) or wettable granules (WG) were weighed out for the required dosages (g a.i./kg seed), corresponding to the seed amounts. The safener amounts were mixed with a coloured slurry blind formulation type, prediluted with milk at 3.5% fat rate (25 mgs slurry formulation plus 2 ml milk per 10 grams of seed). A tube roller was used for coating. The solutions were gradually pipetted each on the rotating seeds followed by coating for min. 3 hours until all liquid had been soaked up by the seeds. Thereafter, the coated seeds were put flat on open trays for drying over night at room temperature.
(§5) Treated seeds were then placed into pots (7 cm diameter) on the surface of sandy loam, pressed down, flat covered with additional soil and finally covered with sandy soil, also pressed down, watered, and kept under good growth conditions in a greenhouse, until the plants had reached 2-leaf-stage (BBCH 12).
(§6) At that stage, post-emergence application of the specified herbicides was done on:
(§7) a) pot sets containing plants with safener-coated seeds as described above,
(§8) b) as a reference, pot sets of plants without seed treatment.
(§9) The herbicides were formulated as wettable powder (WP). Equivalent to the spray area, compound amounts were weighed out and diluted related to the water application rate (300 l/ha) to an aqueous suspension plus additive (1 l/ha MERO). Dosage related equivalents were conventionally sprayed on trays with the potted plants.
(§10) After application, the test plants were kept under good growth conditions in a greenhouse.
(§11) Assessment timings were 10 and 21 days after treatment (DAT) with the herbicide, by visual scoring of the crop damage in % (comparison of untreated with treated plants, either sprayed only with herbicide or with herbicide on plants with treated seeds).

[4] = tested on: spring wheat, TRZAS Triso; assay: as above; conditions: for HER effect + SAF [%] (crop damage) / Reduction [%] / Reduction [Difference]: mefenpyr-diethyl 0.5 g a.i./kg seed; for HER effect [%] (crop damage, herbicide without safener): no safener
From the text: as §3, §4, §5, §6, §7, §8, §9, §10, §11

[5] = HER 6 g a.i./ha + mefenpyr-diethyl 50 g a.i./ha, 10 DAT
[6] = HER 24 g a.i./ha + mefenpyr-diethyl 100 g a.i./ha, 10 DAT
[7] = herbicide alone 6 g a.i./ha, 10 DAT
[8] = herbicide alone 24 g a.i./ha, 10 DAT
[9] = HER 24 g a.i./ha post-emergence, 10 DAT
[10] = HER 1.5 g a.i./ha + mefenpyr-diethyl 50 g a.i./ha, 21 DAT
[11] = HER 2 g a.i./ha + mefenpyr-diethyl 50 g a.i./ha, 21 DAT
[12] = HER 0.5 g a.i./ha post-emergence, 21 DAT
[13] = HER 2 g a.i./ha post-emergence, 21 DAT
[14] = HER 8 g a.i./ha post-emergence, 21 DAT

Compound: CC1(C(=O)NC2COC(C(=O)OCc3ccccc3)C2)CC(c2cccc(F)c2)=NO1 (mixture of isomers) [Example 1.79]
- HER effect + SAF [1, 5]: 0%
- Reduction [%] [1, 5]: 100%
- Reduction [Difference] [1, 5]: 20
- HER effect + SAF [1, 6]: 0%
- Reduction [%] [1, 6]: 100%
- Reduction [Difference] [1, 6]: 70
- HER effect [1, 7]: 20%
- HER effect [1, 8]: 70%
- HER effect + SAF [2, 5]: 0%
- Reduction [%] [2, 5]: 100%
- Reduction [Difference] [2, 5]: 30
- HER effect + SAF [2, 6]: 10%
- Reduction [%] [2, 6]: 80%
- Reduction [Difference] [2, 6]: 40
- HER effect [2, 7]: 30%
- HER effect [2, 8]: 50%
- HER effect + SAF [3, 9]: 40%
- Reduction [%] [3, 9]: 43%
- Reduction [Difference] [3, 9]: 30
- HER effect ([3]; herbicide alone 24 g a.i./ha post-emergence, 10 DAT): 70%
- HER effect + SAF [%] (crop damage) ([4]; 10 DAT, HER dose 24 g a.i./ha): 30%
- Reduction [%] ([4]; 10 DAT, HER dose 24 g a.i./ha): 40%
- Reduction [Difference] ([4]; 10 DAT, HER dose 24 g a.i./ha): 20
- HER effect [%] (crop damage, herbicide without safener) ([4]; 10 DAT, HER dose 24 g a.i./ha): 50%

Compound: CC(C)OC(=O)C1CC(NC(=O)C2(C(C)(F)F)CC(c3cc(F)cc(F)c3)=NO2)CO1 (mixture of isomers) [Example 1.88]
- HER effect + SAF [1, 10]: 10%
- Reduction [%] [1, 10]: 75%
- Reduction [Difference] [1, 10]: 30
- HER effect ([1]; herbicide alone 1.5 g a.i./ha, 21 DAT): 40%
- HER effect + SAF [2, 11]: 30%
- Reduction [%] [2, 11]: 57%
- Reduction [Difference] [2, 11]: 40
- HER effect ([2]; herbicide alone 2 g a.i./ha, 21 DAT): 70%
- HER effect + SAF [3, 12]: 0%
- Reduction [%] [3, 12]: 100%
- Reduction [Difference] [3, 12]: 20
- HER effect + SAF [3, 13]: 10%
- Reduction [%] [3, 13]: 80%
- Reduction [Difference] [3, 13]: 40
- HER effect + SAF [3, 14]: 20%
- Reduction [%] [3, 14]: 76%
- Reduction [Difference] [3, 14]: 65
- HER effect ([3]; herbicide alone 0.5 g a.i./ha post-emergence, 21 DAT): 20%
- HER effect ([3]; herbicide alone 2 g a.i./ha post-emergence, 21 DAT): 50%
- HER effect ([3]; herbicide alone 8 g a.i./ha post-emergence, 21 DAT): 85%
- HER effect + SAF [%] (crop damage) ([4]; 21 DAT, HER dose 2 g a.i./ha): 10%
- Reduction [%] ([4]; 21 DAT, HER dose 2 g a.i./ha): 86%
- Reduction [Difference] ([4]; 21 DAT, HER dose 2 g a.i./ha): 60
- HER effect [%] (crop damage, herbicide without safener) ([4]; 21 DAT, HER dose 2 g a.i./ha): 70%
- HER effect + SAF [%] (crop damage) ([4]; 21 DAT, HER dose 8 g a.i./ha): 20%
- Reduction [%] ([4]; 21 DAT, HER dose 8 g a.i./ha): 76%
- Reduction [Difference] ([4]; 21 DAT, HER dose 8 g a.i./ha): 65
- HER effect [%] (crop damage, herbicide without safener) ([4]; 21 DAT, HER dose 8 g a.i./ha): 85%
